Results published in article PMC9229919, “4-Aminoquinoline-Based Adamantanes as Potential Anticholinesterase Agents in Symptomatic Treatment of Alzheimer’s Disease” (Pharmaceutics, 2022).
Read-outs that look alike come from different tables or passages of the source.

What was measured:
purified human BChE = molecular target: T1, purified human BChE (Homo sapiens, UniProt P06276); assay: biochemical; type: biochemical
T1 construct: possibly also a gift of Dr Florian Nachon (the sentence is ambiguous)
T1 sequence (P06276 29-602): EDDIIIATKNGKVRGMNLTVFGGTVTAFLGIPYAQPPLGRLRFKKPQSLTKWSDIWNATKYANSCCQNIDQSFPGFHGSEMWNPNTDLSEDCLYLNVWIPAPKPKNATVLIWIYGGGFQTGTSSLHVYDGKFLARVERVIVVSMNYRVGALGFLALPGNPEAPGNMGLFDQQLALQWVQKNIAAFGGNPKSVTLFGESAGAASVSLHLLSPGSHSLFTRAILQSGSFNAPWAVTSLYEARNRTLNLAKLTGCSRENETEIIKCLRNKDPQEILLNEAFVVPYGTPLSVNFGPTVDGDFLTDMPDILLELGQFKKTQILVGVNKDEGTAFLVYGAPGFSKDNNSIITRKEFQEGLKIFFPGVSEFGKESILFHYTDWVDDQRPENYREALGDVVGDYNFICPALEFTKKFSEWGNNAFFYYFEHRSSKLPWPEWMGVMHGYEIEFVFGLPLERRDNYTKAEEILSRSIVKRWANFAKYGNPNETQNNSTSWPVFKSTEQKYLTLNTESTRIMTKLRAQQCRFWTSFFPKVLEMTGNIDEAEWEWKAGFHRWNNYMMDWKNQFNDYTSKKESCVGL
Procedure, shortened: (§1)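 Modified Ellman assay with acetylthiocholine and DTNB in 0.1 M sodium phosphate pH 7.4 (enzymes diluted with 0.1% BSA), ≤0.2% DMSO, 25 °C. At least three inhibitor concentrations per substrate level; Ki,app from Hunter–Downs equation, Ki from y-intercept and inhibition type from Ki,app vs [S].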

recombinant human AChE = molecular target: T2, recombinant human AChE (Homo sapiens, UniProt P22303); assay: biochemical; type: biochemical; conditions: for IS: IS = Ki(BChE)/Ki(AChE), IS > 1 selective to AChE
T2 construct: gift of Dr Florian Nachon (Armed Forces Biomedical Research Institute, Brétigny-sur-Orge, France)
T2 sequence (P22303 32-614): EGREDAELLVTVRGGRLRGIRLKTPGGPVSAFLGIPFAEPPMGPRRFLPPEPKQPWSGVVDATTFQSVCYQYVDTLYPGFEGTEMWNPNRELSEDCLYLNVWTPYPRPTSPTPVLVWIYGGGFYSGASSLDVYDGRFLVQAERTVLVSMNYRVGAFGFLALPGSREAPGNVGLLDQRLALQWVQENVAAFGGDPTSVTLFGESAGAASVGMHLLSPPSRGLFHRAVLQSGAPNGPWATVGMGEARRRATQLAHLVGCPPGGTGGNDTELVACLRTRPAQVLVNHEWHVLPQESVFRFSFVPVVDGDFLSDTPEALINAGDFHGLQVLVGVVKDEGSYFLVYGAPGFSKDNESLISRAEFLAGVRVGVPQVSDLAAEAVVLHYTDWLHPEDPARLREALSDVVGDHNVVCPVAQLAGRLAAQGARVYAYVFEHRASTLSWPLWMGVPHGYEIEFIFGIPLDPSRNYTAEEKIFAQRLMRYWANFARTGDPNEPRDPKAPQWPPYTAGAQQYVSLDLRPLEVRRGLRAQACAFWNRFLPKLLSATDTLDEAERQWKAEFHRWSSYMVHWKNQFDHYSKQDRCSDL
Procedure, shortened: as §1

[1] = Ferric reducing antioxidant power (FRAP) assay; conditions: for FRAP: mean ± standard error of three experiments;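 for FRAP: expressed as µM Fe2+ equivalents from an FeSO4·7H2O standard curve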
Procedure, shortened: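 Compounds at 10 and 100 µM were mixed with FRAP reagent (300 mM acetate buffer pH 3.6, TPTZ in HCl, FeCl3, 10:1:1) and incubated 60 min at 37 °C. Fe^2+-TPTZ formation read at 593 nm against a blank. Values derived from an Fe2SO4·7H2O standard curve, three independent experiments.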

[2] = Reverse-phase thin-layer chromatographic lipophilicity (RF, RM0); type: physicochemical; conditions: for RM0: intercept of RM = RM0 + bC; for b: slope of RM = RM0 + bC; for RF, Methanol/Water/Hydrochloric acid (conc.), mobile phase I / RF, Dioxane/Water/Hydrochloric acid (conc.), mobile phase II / RF, Methanol/Water/Hydrochloric acid (conc.), mobile phase II / RF, Acetone/Water/Hydrochloric acid (conc.), mobile phase III / RF, Dioxane/Water/Hydrochloric acid (conc.), mobile phase III / RF, Methanol/Water/Hydrochloric acid (conc.), mobile phase III / RF, Dioxane/Water/Hydrochloric acid (conc.), mobile phase IV / RF, Acetone/Water/Hydrochloric acid (conc.), mobile phase IV / RF, Methanol/Water/Hydrochloric acid (conc.), mobile phase IV / RF, Acetone/Water/Hydrochloric acid (conc.), mobile phase IX / RF, Methanol/Water/Hydrochloric acid (conc.), mobile phase IX / RF, Dioxane/Water/Hydrochloric acid (conc.), mobile phase V / RF, Acetone/Water/Hydrochloric acid (conc.), mobile phase V / RF, Methanol/Water/Hydrochloric acid (conc.), mobile phase V / RF, Dioxane/Water/Hydrochloric acid (conc.), mobile phase VI / RF, Acetone/Water/Hydrochloric acid (conc.), mobile phase VI / RF, Methanol/Water/Hydrochloric acid (conc.), mobile phase VI / RF, Acetone/Water/Hydrochloric acid (conc.), mobile phase VII / RF, Methanol/Water/Hydrochloric acid (conc.), mobile phase VII / RF, Acetone/Water/Hydrochloric acid (conc.), mobile phase VIII / RF, Methanol/Water/Hydrochloric acid (conc.), mobile phase VIII: RP-18 silica; for RF, Methanol/Water/Hydrochloric acid (conc.), mobile phase I: I = 90%MeOH/5%H2O/5%HCl; for RF, Dioxane/Water/Hydrochloric acid (conc.), mobile phase II: II = 80%Dioxane/15%H2O/5%HCl; for RF, Methanol/Water/Hydrochloric acid (conc.), mobile phase II: II = 85%MeOH/10%H2O/5%HCl; for RF, Acetone/Water/Hydrochloric acid (conc.), mobile phase III: III = 70%AC/25%H2O/5%HCl; for RF, Dioxane/Water/Hydrochloric acid (conc.), mobile phase III: III = 70%Dioxane/25%H2O/5%HCl; for RF, Methanol/Water/Hydrochloric acid (conc.), mobile phase III: III = 80%MeOH/15%H2O/5%HCl; for RF, Dioxane/Water/Hydrochloric acid (conc.), mobile phase IV: IV = 60%Dioxane/35%H2O/5%HCl; for RF, Acetone/Water/Hydrochloric acid (conc.), mobile phase IV: IV = 65%AC/30%H2O/5%HCl; for RF, Methanol/Water/Hydrochloric acid (conc.), mobile phase IV: IV = 75%MeOH/20%H2O/5%HCl; for RF, Acetone/Water/Hydrochloric acid (conc.), mobile phase IX: IX = 40%AC/55%H2O/5%HCl; for RF, Methanol/Water/Hydrochloric acid (conc.), mobile phase IX: IX = 50%MeOH/45%H2O/5%HCl; for RF, Dioxane/Water/Hydrochloric acid (conc.), mobile phase V: V = 50%Dioxane/45%H2O/5%HCl; for RF, Acetone/Water/Hydrochloric acid (conc.), mobile phase V: V = 60%AC/35%H2O/5%HCl; for RF, Methanol/Water/Hydrochloric acid (conc.), mobile phase V: V = 70%MeOH/25%H2O/5%HCl; for RF, Dioxane/Water/Hydrochloric acid (conc.), mobile phase VI: VI = 40%Dioxane/55%H2O/5%HCl; for RF, Acetone/Water/Hydrochloric acid (conc.), mobile phase VI: VI = 55%AC/40%H2O/5%HCl; for RF, Methanol/Water/Hydrochloric acid (conc.), mobile phase VI: VI = 65%MeOH/30%H2O/5%HCl; for RF, Acetone/Water/Hydrochloric acid (conc.), mobile phase VII: VII = 50%AC/45%H2O/5%HCl; for RF, Methanol/Water/Hydrochloric acid (conc.), mobile phase VII: VII = 60%MeOH/35%H2O/5%HCl; for RF, Acetone/Water/Hydrochloric acid (conc.), mobile phase VIII: VIII = 45%AC/50%H2O/5%HCl; for RF, Methanol/Water/Hydrochloric acid (conc.), mobile phase VIII: VIII = 55%MeOH/40%H2O/5%HCl
Procedure, shortened: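 Reverse-phase TLC using mobile phases of methanol, acetone or dioxane with water and hydrochloric acid. Methanol varied in 10% steps; development distance 4.5 cm, ambient temperature (22±2 °C). RF measured and RM0 derived from retention.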

[3] = logarithm of Ki in µM, BChE, dependent variable of the QSAR model, read-out: Y Measured 2 log(ki)Bche, log (Ki/µM BChE) (converted)
[4] = ± standard error, 25 °C, ATCh substrate, read-out: Ki BChE
[5] = log (Ki/µM AChE), read-out: Y Measured 1 log(ki)Ache (converted)
[6] = ± standard error, 25 °C, ATCh substrate, read-out: Ki AChE
[7] = Acetone/Water/Hydrochloric acid (conc.)
[8] = Dioxane/Water/Hydrochloric acid (conc.)
[9] = Methanol/Water/Hydrochloric acid (conc.)

Row | Compound | Ki (purified human BChE; [3]) [µM] | Ki (purified human BChE; [4]) [µM] | IS (recombinant human AChE) | Ki (recombinant human AChE; [5]) [µM] | Ki (recombinant human AChE; [6]) [µM] | FRAP ([1]; 10 µM compound) [µM] | FRAP ([1]; 100 µM compound) [µM] | RM0 [2, 7] | b [2, 7] | RM0 [2, 8] | b [2, 8] | RM0 [2, 9] | b [2, 9] | RF, Methanol/Water/Hydrochloric acid (conc.), mobile phase I [2] | RF, Dioxane/Water/Hydrochloric acid (conc.), mobile phase II [2] | RF, Methanol/Water/Hydrochloric acid (conc.), mobile phase II [2] | RF, Acetone/Water/Hydrochloric acid (conc.), mobile phase III [2] | RF, Dioxane/Water/Hydrochloric acid (conc.), mobile phase III [2] | RF, Methanol/Water/Hydrochloric acid (conc.), mobile phase III [2] | RF, Dioxane/Water/Hydrochloric acid (conc.), mobile phase IV [2] | further results
1 | Clc1ccc2c(Nc3cccc(NCC45CC6CC(CC(C6)C4)C5)c3)ccnc2c1 [Compound 18] | 5.5 | 5.5 ± 0.6 | 0.6 | 8.99 | 9 ± 0.8 | 22 ± 6 | 300 ± 32 | 2.074 | 3.191 | 1.102 | 2.114 | 2.664 | 3.468 | 0.71 | 0.75 | 0.68 | 0.55 | 0.71 | 0.5 | 0.7 | decrease in BChE inhibition vs compound 5 (purified human BChE): up to 275 times; antioxidant power lower than that of Trolox ([1]; on average): ~20 times; RF, Acetone/Water/Hydrochloric acid (conc.), mobile phase IV [2]: 0.5; RF, Methanol/Water/Hydrochloric acid (conc.), mobile phase IV [2]: 0.49; RF, Acetone/Water/Hydrochloric acid (conc.), mobile phase IX [2]: 0.1; RF, Methanol/Water/Hydrochloric acid (conc.), mobile phase IX [2]: 0.09; RF, Dioxane/Water/Hydrochloric acid (conc.), mobile phase V [2]: 0.48; RF, Acetone/Water/Hydrochloric acid (conc.), mobile phase V [2]: 0.4; RF, Methanol/Water/Hydrochloric acid (conc.), mobile phase V [2]: 0.41; RF, Dioxane/Water/Hydrochloric acid (conc.), mobile phase VI [2]: 0.3; RF, Acetone/Water/Hydrochloric acid (conc.), mobile phase VI [2]: 0.36; RF, Methanol/Water/Hydrochloric acid (conc.), mobile phase VI [2]: 0.34; RF, Acetone/Water/Hydrochloric acid (conc.), mobile phase VII [2]: 0.3; RF, Methanol/Water/Hydrochloric acid (conc.), mobile phase VII [2]: 0.22; RF, Acetone/Water/Hydrochloric acid (conc.), mobile phase VIII [2]: 0.21; RF, Methanol/Water/Hydrochloric acid (conc.), mobile phase VIII [2]: 0.13
2 | Clc1ccc2c(N3CCN(CC45CC6CC(CC(C6)C4)C5)CC3)ccnc2c1 [Compound 20] | 25.1 | 25 ± 1 | 2.7 | 9.4 | 9.4 ± 0.4 | 2.9 ± 1.1 | 6.3 ± 1.6 | 1.432 | 2.592 | 0.3825 | 1.224 | 1.5449 | 2.158 | 0.67 | 0.75 | 0.7 | 0.69 | 0.76 | 0.58 | 0.78 | decrease in BChE inhibition vs compound 5 (purified human BChE): up to 275 times; RF, Acetone/Water/Hydrochloric acid (conc.), mobile phase IV [2]: 0.65; RF, Methanol/Water/Hydrochloric acid (conc.), mobile phase IV [2]: 0.56; RF, Acetone/Water/Hydrochloric acid (conc.), mobile phase IX [2]: 0.28; RF, Methanol/Water/Hydrochloric acid (conc.), mobile phase IX [2]: 0.22; RF, Dioxane/Water/Hydrochloric acid (conc.), mobile phase V [2]: 0.63; RF, Acetone/Water/Hydrochloric acid (conc.), mobile phase V [2]: 0.58; RF, Methanol/Water/Hydrochloric acid (conc.), mobile phase V [2]: 0.48; RF, Dioxane/Water/Hydrochloric acid (conc.), mobile phase VI [2]: 0.5; RF, Acetone/Water/Hydrochloric acid (conc.), mobile phase VI [2]: 0.51; RF, Methanol/Water/Hydrochloric acid (conc.), mobile phase VI [2]: 0.45; RF, Acetone/Water/Hydrochloric acid (conc.), mobile phase VII [2]: 0.42; RF, Methanol/Water/Hydrochloric acid (conc.), mobile phase VII [2]: 0.38; RF, Acetone/Water/Hydrochloric acid (conc.), mobile phase VIII [2]: 0.35; RF, Methanol/Water/Hydrochloric acid (conc.), mobile phase VIII [2]: 0.31
3 | Clc1ccc2c(N3CCN(CCC45CC6CC(CC(C6)C4)C5)CC3)ccnc2c1 [Compound 21] | 5.6 | 5.6 ± 0.6 | 2.7 | 2.1 | 2.1 ± 0.4 | 6.0 ± 2.0 | 15 ± 5 | 1.611 | 2.562 | 0.7539 | 1.607 | 2.219 | 2.906 | 0.68 | 0.73 | 0.65 | 0.59 | 0.71 | 0.51 | 0.71 | RF, Acetone/Water/Hydrochloric acid (conc.), mobile phase IV [2]: 0.53; RF, Methanol/Water/Hydrochloric acid (conc.), mobile phase IV [2]: 0.51; RF, Acetone/Water/Hydrochloric acid (conc.), mobile phase IX [2]: 0.17; RF, Methanol/Water/Hydrochloric acid (conc.), mobile phase IX [2]: 0.12; RF, Dioxane/Water/Hydrochloric acid (conc.), mobile phase V [2]: 0.52; RF, Acetone/Water/Hydrochloric acid (conc.), mobile phase V [2]: 0.44; RF, Methanol/Water/Hydrochloric acid (conc.), mobile phase V [2]: 0.45; RF, Dioxane/Water/Hydrochloric acid (conc.), mobile phase VI [2]: 0.39; RF, Acetone/Water/Hydrochloric acid (conc.), mobile phase VI [2]: 0.4; RF, Methanol/Water/Hydrochloric acid (conc.), mobile phase VI [2]: 0.36; RF, Acetone/Water/Hydrochloric acid (conc.), mobile phase VII [2]: 0.35; RF, Methanol/Water/Hydrochloric acid (conc.), mobile phase VII [2]: 0.27; RF, Acetone/Water/Hydrochloric acid (conc.), mobile phase VIII [2]: 0.29; RF, Methanol/Water/Hydrochloric acid (conc.), mobile phase VIII [2]: 0.18
